Source: PMC4301871, “WW Domains of the Yes-Kinase-Associated-Protein (YAP) Transcriptional Regulator Behave as Independent Units with Different Binding Preferences for PPxY Motif-Containing Ligands” (PLoS ONE, 2015)
Where two headings read alike, the source gives them in different places.

Columns and labels:
[1] = target: T1, YAP-WW1-WW2 tandem construct (human YAP residues 165–271) (Homo sapiens, UniProt P46937); assay: Isothermal titration calorimetry of peptide ligands with the YAP-WW1-WW2 tandem; format: binding; settings: ITC, 25°C; for n (number of binding sites): 40 mM sodium phosphate pH 7.0 (10 mM β-mercaptoethanol for LATS2), binding model for one set of sites
T1 construct: residues 165–271 for tandem construct (YAP-WW1-WW2); poly-histidine (N, cleaved yes); GST (N, cleaved yes); made in house; host or cells: E. coli BL21 (DE3)

[2] = target: T2, YAP-WW1 (first WW domain of human YAP, residues 165–209) (Homo sapiens, UniProt P46937); assay: Isothermal titration calorimetry of peptide ligands with isolated YAP-WW1; format: binding; settings: ITC, 25°C; for n (number of binding sites) / Kd: 40 mM sodium phosphate pH 7.0 (10 mM β-mercaptoethanol for LATS2), one set of identical sites model, at least two experiments; for n (number of binding sites): variability about 1%; for Kd: variability about 10%; for -T·ΔSap / ΔGap / ΔHap: pH 7.0, one set of sites model; for ΔHap: variability about 5%
T2 construct: residues 165–209 for the first WW domain of human YAP (YAP-WW1); poly-histidine (N, cleaved yes); GST (N, cleaved yes); made in house; host or cells: E. coli BL21 (DE3)
Experimental: (§1) ITC experiments were carried out using a high-precision VP-ITC titration calorimeter (Microcal Inc., Northampton, Massachusetts). The WW domains were extensively dialyzed against 40 mM sodium phosphate buffer, pH 7.0, with the exception of those experiments using the LATS2 ligand, (containing a cysteine residue), for which the dialysis was performed in the presence of 10mM β-mercaptoethanol to reduce intermolecular di-sulphide bonds formed during ligand storage. Protein and peptide solutions, ranging from 20 to 40 μM for the proteins and from 0.8 to 2 mM for the ligands, were properly degassed to avoid bubble formation and equilibrated to 25°C prior to the titration experiment. In all cases, a profile of injection volumes from 3 to 20 μl was used to better define the titration curve. The heat evolved after each peptide injection was obtained from the integral of the calorimetric signal. The heat associated with the binding process was obtained as the difference between the heat of reaction and the corresponding heat of dilution, as obtained from independent titrations of the peptides into the buffer.
(§2) For the individual WW domains and those ligands with similar binding affinities for YAP-WW1 and YAP-WW2 domains (LATS1-a and LATS2), the resulting binding isotherms were analyzed by non-linear least-squares fittings to a model corresponding to a single set of identical sites, according to the equation:
(§3) Q=V0ΔH/2Ka[1+Ka[Lt]+nKa[Mt]+(1+Ka[Lt]+nKa[Mt])^2−4nKa2[Mt][Lt]] (equation 2)
(§4) , where Q is the net heat of binding, n is the number of binding sites, ΔH is the change in the enthalpy due to the binding process, Ka is the association constant, V0 is the active cell volume, and [Mt] and [Lt] are the total concentrations of macromolecule and the ligand, respectively.
(§5) Both models were implemented in Origin 7.0 software (OriginLab Corporation, Northampton, MA). For the least-squares fit using the one set of sites model, the number of binding sites, the association constant, and the binding enthalpy were considered as floating parameters, while in the analysis with the two set of sites model, only the two association constants and the two binding enthalpies were left to float. All experiments were performed at least twice. Typically, the variability of the experimental values was estimated to be about 1% in the number of binding sites, 5% in the binding enthalpy and 10% in the binding affinity.

[3] = target: T3, YAP-WW2 (second WW domain of human YAP, residues 228–271) (Homo sapiens, UniProt P46937); assay: Isothermal titration calorimetry of peptide ligands with isolated YAP-WW2; format: binding; settings: ITC, 25°C; for n (number of binding sites) / Kd: 40 mM sodium phosphate pH 7.0 (10 mM β-mercaptoethanol for LATS2), one set of identical sites model, at least two experiments; for n (number of binding sites): variability about 1%; for Kd: variability about 10%, n.b. = no binding detected; for -T·ΔSap / ΔGap / ΔHap: pH 7.0, one set of sites model; for ΔHap: variability about 5%
T3 construct: residues 228–271 for the second WW domain (YAP-WW2); poly-histidine (N, cleaved yes); GST (N, cleaved yes); made in house; host or cells: E. coli BL21 (DE3)
Experimental: as §1, §2, §3, §4, §5

YAP-WW1 domain = assay: Phage ELISA of YAP-WW2-selected clones, displacement of p53BP2 from YAP-WW1; format: binding, human; settings: YAP-WW1 compared with YAP-WW2
Experimental: The analysis of the binding preferences of the WW domains was performed by phage-display as previously described. Briefly, an N-term library in PIII was generated using a template derived from the pS2202d phagemid, containing the Erbin-PDZ domain kindly provided by Dr. Sachdev Sidhu (University of Toronto). The Erbin-PDZ sequence was removed by the introduction of four stop codons between the secretion signal and the linker required for the correct display of the library variants in the phage. A randomized sequence corresponding to a x5(L/P)PxYx5 peptide library containing the L/PPxY core motif for type 1 WW domains was subsequently introduced into the modified phagemid. The resulting library was then introduced into the SS320 strain by electroporation. The subsequent phage propagation led to 10^11 library diversity, which was isolated at 5 x 10^13 phages/ml in PBS-Tween (0.05%) buffer. The resulting library was then screened against immobilized GST-tagged YAP-WW2 domain (GST-YAP-WW2) in PBS, carrying out seven rounds of an iterative selection process. Single clones were chosen from round 3 to round 7 and tested for specific binding to the GST-YAP-WW2 by phage ELISA in a Tecan Infinite M200 instrument. […] The DNA from phages showing binding in the ELISA assay were used as PCR templates to amplify the peptide-encoding regions, which were then sequenced and analyzed.

[4] = pH 7.0, model of two different sets of sites, n fixed to 1 each, first set of sites (first line)
[5] = pH 7.0, model of two different sets of sites, n fixed to 1 each, second set of sites (second line)
[6] = pH 7.0, two sets of sites model, n fixed to 1, first set of sites
[7] = pH 7.0, two sets of sites model, n fixed to 1, second set of sites
[8] = pH 7.0, binding model for one set of sites

T1 sequence (P46937 165-271): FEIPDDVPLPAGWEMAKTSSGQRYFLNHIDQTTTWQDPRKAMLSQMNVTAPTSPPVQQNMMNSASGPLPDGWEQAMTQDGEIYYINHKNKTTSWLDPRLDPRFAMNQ
T3 sequence (P46937 228-271): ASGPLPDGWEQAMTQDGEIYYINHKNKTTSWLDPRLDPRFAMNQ
T2 sequence (P46937 165-209): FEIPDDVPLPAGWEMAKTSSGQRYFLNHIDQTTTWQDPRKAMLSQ

Row | Compound | Kd [1, 4] | Kd [1, 5] | -T·ΔSap [1, 6] | ΔGap [1, 6] | ΔHap [1, 6] | -T·ΔSap [1, 7] | n (number of binding sites) [2] | Kd [2] | -T·ΔSap [2] | ΔGap [2] | ΔHap [2] | n (number of binding sites) [3] | Kd ([3]; read-out: Kd) | -T·ΔSap [3] | ΔGap [3] | ΔHap [3] | -T·ΔSap [1, 8] | Kd [1, 8] | ΔGap [1, 8] | ΔHap [1, 8] | further results
1 | Ac-YQGPPPPYPKHL-NH2 [LATS1-b] | 4.8 µM | 31.9 µM | 9.66 kcal/mol | -7.27 kcal/mol | -16.9 kcal/mol | 6.24 kcal/mol | 0.91 | 3.7 µM | 9.08 kcal/mol | -7.41 kcal/mol | -16.5 kcal/mol | 0.94 | 33.9 µM | 10.7 kcal/mol | -6.12 kcal/mol | -16.8 kcal/mol | – | – | – | – | ΔGap [1, 7]: -6.14 kcal/mol; ΔHap [1, 7]: -12.4 kcal/mol
2 | AGRPPPPPYPGPPL | – | – | – | – | – | – | – | – | – | – | – | – | – | – | – | – | – | – | – | – | Interaction with the two WW domains of YAP (ELISA binding experiments) (YAP-WW1 domain): seems to interact similarly with the two WW domains of YAP
3 | Ac-RRCPPPPYPKHL-NH2 [LATS2] | – | – | – | – | – | – | 1.05 | 7.1 µM | 11.9 kcal/mol | – | -18.8 kcal/mol | 1.08 | 8.2 µM | 6.86 kcal/mol | -6.96 kcal/mol | -13.8 kcal/mol | 9.56 kcal/mol | 9.2 µM | -6.88 kcal/mol | -16.4 kcal/mol | n (number of binding sites) [1]: 2.02
4 | CC(=O)N[C@@H](CC(N)=O)C(=O)N[C@@H](CCCNC(=N)N)C(=O)N[C@@H](CCC(N)=O)C(=O)N1CCC[C@H]1C(=O)N1CCC[C@H]1C(=O)N1CCC[C@H]1C(=O)N1CCC[C@H]1C(=O)N[C@@H](Cc1ccc(O)cc1)C(=O)N1CCC[C@H]1C(=O)N[C@@H](CC(C)C)C(=O)N[C@H](C(=O)N[C@@H](C)C(N)=O)[C@@H](C)O [LATS1-a] | – | – | – | – | – | – | 0.96 | 21.5 µM | 9.63 kcal/mol | -6.38 kcal/mol | -16 kcal/mol | 1.09 | 27 µM | 12 kcal/mol | -6.24 kcal/mol | -18.2 kcal/mol | 11.1 kcal/mol | 33.4 µM | -6.12 kcal/mol | -17.2 kcal/mol | n (number of binding sites) [1]: 2.04

The next lines start with results.

Row | Kd [1, 4] | Kd [1, 5] | -T·ΔSap [1, 6] | ΔGap [1, 6] | ΔHap [1, 6] | -T·ΔSap [1, 7] | n (number of binding sites) [2] | Kd [2] | -T·ΔSap [2] | ΔGap [2] | ΔHap [2] | n (number of binding sites) [3] | Kd ([3]; read-out: Kd) | -T·ΔSap [3] | ΔGap [3] | ΔHap [3] | -T·ΔSap [1, 8] | Kd [1, 8] | ΔGap [1, 8] | ΔHap [1, 8] | Compound | further results
5 | 24.7 µM | 47.4 µM | 6.33 kcal/mol | -6.31 kcal/mol | -12.6 kcal/mol | 12.1 kcal/mol | 0.95 | 27.6 µM | 9.3 kcal/mol | -6.24 kcal/mol | -15.5 kcal/mol | 0.91 | 45.8 µM | 9.82 kcal/mol | -5.93 kcal/mol | -15.8 kcal/mol | – | – | – | – | CC(=O)N[C@@H](CCCNC(=N)N)C(=O)N[C@@H](Cc1ccc(O)cc1)C(=O)N[C@@H](CO)C(=O)N1CCC[C@H]1C(=O)N1CCC[C@H]1C(=O)N1CCC[C@H]1C(=O)N1CCC[C@H]1C(=O)N[C@@H](Cc1ccc(O)cc1)C(=O)N[C@@H](CO)C(=O)N[C@@H](CO)C(=O)N[C@@H](Cc1c[nH]cn1)C(=O)N[C@@H](CO)C(N)=O [PTCH1-a] | ΔGap [1, 7]: -5.9 kcal/mol; ΔHap [1, 7]: -18 kcal/mol
6 | – | – | – | – | – | – | 1.09 | 13.2 µM | 11.3 kcal/mol | -6.67 kcal/mol | -18 kcal/mol | – | – | – | – | – | 12.6 kcal/mol | 16.9 µM | -6.52 kcal/mol | -19.2 kcal/mol | Ac-EGLWPPPYRPRR-NH2 [PTCH1-b] | Kd [3]: no interaction was detected and n.b.
